Experimental data taken from patent publication US12391677B2, “Thyroid hormone receptor agonists” (INVENTISBIO CO., LTD., priority 2018, dated 2025).

Tests used:
[1] = molecular target: ligand binding domain of thyroid hormone receptor alpha (Homo sapiens (Human), UniProt P10827); assay: Thyroid hormone receptor TR-FRET binding assay (TRα LBD); details: TRα LBD 4 nM
Method: (§1) TR-FRET binding assay was used to test representative compounds herein.
(§2) The ligand binding domain of thyroid hormone receptor alpha and the ligand binding domain of thyroid hormone receptor beta with GST tag were purchased from Invitrogen. Biotin-SRC2-2 coactivator peptide was purchased from Sangon Biotech, Europium anti-GST and Streptavidin-D2 was from Cisbio.
(§3) Five microliters of 4× compound serial dilution was added in the 384-well plate, white, low volume, round-bottom assay plate. […] Centrifuge the assay plates at 1000 g for 1 min and incubate 1 hr at RT, protected from light. […] Calculate EC50 by fitting % Activity values and log of compound concentrations to nonlinear regression (dose response—variable slope) with Graphpad 5.0.

[2] = molecular target: TRβ-GAL4 binding domain chimeric receptors (Homo sapiens (Human), UniProt P10828); assay: Thyroid hormone receptor cell assay (GAL4 luciferase reporter in HEK293-LUC cells); assay type: cell-based
Excerpt: TRα-LBD or TRβ-LBD, coding sequence was inserted into pBIND expression vector (Promega, E1581) to express TRβ-GAL4 binding domain chimeric receptors. This expression vector was transfected into HEK293-LUC host cells with reporter vector (pGL4.35 which carry a stably integrated GAL4 promoter driven luciferase reporter gene). Upon agonist binding to the corresponding TRa-GAL4 or TRb-GAL4 chimeric receptor, the chimeric receptor binds to the GAL4 binding sites and stimulates the reporter gene.
Seed 2.5×10^6 HEK293-LUC cells into a 60 mm dish and incubated for 16 h at 37° C. under 5% CO2 atmosphere. Mix 12 microliters of Lipo LTX reagent in 250 microliters of Opti-MEM Medium by inversion. Mix 6 ug of DNA in 250 uL of Opti-MEM medium, then add 6 uL of Lipo PLUS Reagent. Add diluted DNA to each tube of diluted Lipo LTX Reagent (1:1 ratio), and mix by Pipettor and incubate at room temperature for 10 min. The reagent mixture was added to a 60 mm dish, incubated with cells for 4-7 h at 37 degrees under 5% CO2 atmosphere.
75 nL compound was added into 384 well assay plate using ECHO550 and then add HEK293-LUC cells (transfected, 17,000 cells/well) into the plate using phenol red-free DMEM containing 5% charcoal/dextran-treated FBS and incubated for 16-20 h at […] under 5% CO2 atmosphere. Add 25 uL of Steady-Glo Luciferase Assay Reagent into each well. Shake for 5 min and then record the luminescence value on Envision 2104 plate reader.

[3] = molecular target: ligand binding domain of thyroid hormone receptor beta (Homo sapiens (Human), UniProt P10828); assay: Thyroid hormone receptor TR-FRET binding assay (TRβ LBD); details: TRβ LBD 2 nM
Method: as §1, §2, §3

ligand binding domain of thyroid hormone receptor beta, sequence (P10828 217-461): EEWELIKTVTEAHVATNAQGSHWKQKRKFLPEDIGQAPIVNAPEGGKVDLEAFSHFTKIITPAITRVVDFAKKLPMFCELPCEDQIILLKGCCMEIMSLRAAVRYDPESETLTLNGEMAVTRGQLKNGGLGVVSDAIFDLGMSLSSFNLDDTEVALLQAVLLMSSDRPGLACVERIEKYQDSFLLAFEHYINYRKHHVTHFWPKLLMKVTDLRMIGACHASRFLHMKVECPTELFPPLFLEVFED
TRβ-GAL4 binding domain chimeric receptors, sequence (P10828 217-461, stated change not applied): as the sequence (P10828 217-461) above
ligand binding domain of thyroid hormone receptor alpha, sequence (P10827 other isoform, or with tags, fused parts or gaps del 1-162, other chains not shown): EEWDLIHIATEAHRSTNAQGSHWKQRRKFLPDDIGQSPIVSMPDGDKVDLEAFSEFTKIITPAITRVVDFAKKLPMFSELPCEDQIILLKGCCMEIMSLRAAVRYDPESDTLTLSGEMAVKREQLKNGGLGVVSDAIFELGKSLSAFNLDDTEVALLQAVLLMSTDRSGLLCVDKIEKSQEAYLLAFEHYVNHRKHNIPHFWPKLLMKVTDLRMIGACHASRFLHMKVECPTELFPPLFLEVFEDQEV

Structure (SMILES) | EC50 [1] | EC50 [2] | EC50 [3]
Cc1nn(-c2cc(Cl)c(Oc3cc(C4CCCC4)c(=O)[nH]n3)c(Cl)c2)c(=O)[nH]c1=O [Compound 14] | 4.06 µM | 0.65 µM | 370 nM
CCC(CC)c1cc(Oc2c(Cl)cc(-n3nc(C)c(=O)[nH]c3=O)cc2Cl)n[nH]c1=O [Compound 40] | 38.8 µM | 0.61 µM | 410 nM
Cc1nn(-c2cc(Cl)c(Oc3cc(C4CCCCC4)c(=O)[nH]n3)c(Cl)c2)c(=O)[nH]c1=O [Compound 15] | 60.2 µM | 4.61 µM | 4330 nM
CC(C)c1cc(Oc2c(Cl)cc(-n3nc(C#N)c(=O)[nH]c3=O)cc2C(F)(F)F)n[nH]c1=O [Compound 47] | 1.49 µM | 4.13 µM | 160 nM
CCc1nn(-c2cc(Cl)c(Oc3cc(C(C)C)c(=O)[nH]n3)c(Cl)c2)c(=O)[nH]c1=O [Compound 37] | 9.82 µM | 1.22 µM | 1550 nM
N#Cc1nn(-c2cc(Cl)c(Oc3cc(C4CCCC4)c(=O)[nH]n3)c(C(F)(F)F)c2)c(=O)[nH]c1=O [Compound 63] | 90 µM | 8.43 µM | 170 nM
N#Cc1nn(-c2cc(Cl)c(Oc3cc(C4CCCC4)c(=O)[nH]n3)c(Cl)c2)c(=O)[nH]c1=O [Compound 2] | 36.7 µM | 9.88 µM | 760 nM
N#Cc1nn(-c2cc(Cl)c(Oc3cc(CC4CCCCC4)c(=O)[nH]n3)c(Cl)c2)c(=O)[nH]c1=O [Compound 17] | > 90 µM | 12.2 µM | 720 nM
N#Cc1nn(-c2cc(Cl)c(Oc3cc(C4CC4)c(=O)[nH]n3)c(Cl)c2)c(=O)[nH]c1=O [Compound 1] | 5.76 µM | 7.1 µM | 540 nM
N#Cc1nn(-c2cc(Br)c(Oc3cc(C4CCCC4)c(=O)[nH]n3)c(Br)c2)c(=O)[nH]c1=O [Compound 20] | > 90 µM | 4.98 µM | 170 nM

Compounds with a lower EC50 [1], results first:

EC50 [1] | EC50 [2] | EC50 [3] | Structure (SMILES)
1.13 µM | 0.27 µM | 160 nM | Cc1nn(-c2cc(Cl)c(Oc3cc(C(C)C4CCCCC4)c(=O)[nH]n3)c(Cl)c2)c(=O)[nH]c1=O (single isomer, unassigned) [Compound 75]
1.43 µM | 5.29 µM | 180 nM | N#Cc1nn(-c2cc(Cl)c(Oc3cc(C4CCC4)c(=O)[nH]n3)c(C(F)(F)F)c2)c(=O)[nH]c1=O [Compound 62]
1.03 µM | 1.05 µM | 90 nM | CC(C)c1c[nH]c2ccc(Oc3c(Cl)cc(-n4nc(C#N)c(=O)[nH]c4=O)cc3Cl)cc12 [Compound 56]
0.14 µM | 0.23 µM | 20 nM | CC(C)c1c[nH]c2ccc(Oc3c(Cl)cc(-n4nc(C#N)c(=O)[nH]c4=O)cc3C(F)(F)F)cc12 [Compound 83]
1.18 µM | 11.2 µM | 100 nM | N#Cc1nn(-c2cc(Cl)c(Oc3cc(Cc4ccc5[nH]ncc5c4)c(=O)[nH]n3)c(Cl)c2)c(=O)[nH]c1=O [Compound 73]
0.31 µM | 0.09 µM | 30 nM | Cc1nn(-c2cc(Br)c(Oc3cc(C(C)C)c(=O)[nH]n3)c(Br)c2)c(=O)[nH]c1=O [Compound 46]
